Assay results published in paper PMC12040169 (PLOS Biology, 2025).

Test: in vitro
Settings: human, hela cells, % viability

Row | Structure (SMILES) | viability at 28.5 h, 10 µM
1 | Cc1cc(C)c(OCCOCCN2CCN(C)CC2)c(Cl)c1 [CBK263744G] | 98.6%
2 | Cn1cc(/C=C(\C(=O)O)C(C(=O)O)=C2C3CC4CC(C3)CC2C4)c2ccccc21 [CBK263749] | 96.5%
3 | O=C(Nc1ccc2ccccc2c1)c1ccccc1N(Cc1ccccc1)S(=O)(=O)c1ccccc1 [CBK263751] | 91.5%
4 | O=C(Nc1cccc2nsnc12)c1ccc(-c2ccc(Br)cc2)o1 [CBK263752] | 95.9%
5 | CC(=O)C1=C(O)C(=O)N(CCCO)C1c1cccc([N+](=O)[O-])c1 (centres unmarked) [CBK263753] | 92.6%
6 | NNC(=O)CN(CCc1ccccc1)S(=O)(=O)c1ccc(Cl)cc1 [CBK263754] | 86.2%
7 | CCOC(=O)C1(C)C=C(Nc2cccc(C)c2)C(=O)N1c1ccccc1 (centres unmarked) [CBK263757] | 96.8%
8 | NS(=O)(=O)c1ccc(N2C(=O)C(O)=C(C(=O)c3ccc(Cl)cc3)C2c2ccc([N+](=O)[O-])cc2)cc1 (centres unmarked) [CBK263758] | 97.2%
9 | O=C(Nc1cccc2ccccc12)c1ccc(CSCc2ccccc2)cc1 [CBK263759] | 105%
10 | O=C(O)c1ccc(N2C(=O)C(O)=C(C(=O)c3ccccc3)C2c2cccc([N+](=O)[O-])c2)cc1 (centres unmarked) [CBK263760] | 92.5%
11 | COc1ccc(C2C(C(C)=O)=C(O)C(=O)N2CCC(=O)O)cc1 (centres unmarked) [CBK263763] | 97.3%
12 | CCOc1ccc(N(CC(=O)O)S(=O)(=O)c2ccc(SC)cc2)cc1 [CBK263764] | 103%
13 | COc1ccc(-n2nc3cc(C)c(NC(=O)c4ccc(-c5ccc([N+](=O)[O-])cc5OC)o4)cc3n2)cc1 [CBK263766] | 99.3%
14 | Cc1ccc(S(=O)(=O)N(CC(=O)O)c2ccc(Cl)cc2)cc1 [CBK263767] | 106%
15 | CN(C)S(=O)(=O)N1CCC(Cc2ccccc2)CC1 [CBK263768] | 98.2%
16 | Cc1ccc(C(C)C)c(OCC(=O)Nc2ccc(F)c([N+](=O)[O-])c2)c1 [CBK263771] | 91.7%
17 | CC(SCc1ccccc1)C(=O)NC(C)c1ccccc1 (centres unmarked) [CBK263772] | 103%
18 | Cc1cc(C)cc(N(CC(=O)O)S(C)(=O)=O)c1 [CBK263775] | 111%
19 | O=C(CN(c1ccc(Cl)cc1)S(=O)(=O)c1ccccc1)Nc1ccc2ccccc2c1 [CBK263776] | 112%
20 | O=C(CN(c1ccccc1)S(=O)(=O)c1ccccc1[N+](=O)[O-])Nc1ccccc1 [CBK263777] | 76.3%
21 | Cc1ccc(S(=O)(=O)N(CC(=O)O)c2ccc(C)c(C)c2)cc1 [CBK263778] | 89.6%

Row | Structure (SMILES) | viability at 28.5 h, 10 µM
22 | O=C(COc1ccc2ccccc2c1)Nc1cc([N+](=O)[O-])ccc1F [CBK263780] | 92.8%
23 | CC(NC(=O)CN(c1ccc(Cl)c(Cl)c1)S(=O)(=O)c1ccccc1)c1ccccc1 (centres unmarked) [CBK263781] | 92.8%
24 | O=C(O)CN(c1ccc([N+](=O)[O-])cc1)S(=O)(=O)c1ccccc1 [CBK263782] | 92.7%
25 | O=C(COc1cc(Cl)c(Cl)cc1Cl)N1CCN(c2ccc([N+](=O)[O-])cc2)CC1 [CBK263783] | 97.1%
26 | Cc1ccc(S(=O)(=O)NCCNc2ccc(Cl)cc2[N+](=O)[O-])cc1 [CBK263784] | 104%
27 | COc1ccc(NC(=O)c2ccc(CN3CCOCC3)cc2)c(OC)c1 [CBK263790] | 91.4%
28 | Cc1cc(/C=C(/C#N)c2nc3ccccc3[nH]2)c(C)n1-c1ccc(N2CCOCC2)cc1 [CBK263792] | 94%
29 | Cc1ccc(N(Cc2ccc(C(=O)N(C)Cc3ccccc3)cc2)S(C)(=O)=O)cc1C [CBK263795] | 81.5%
30 | CC(=O)C1=C(O)C(=O)N(CCCC(=O)O)C1c1cccc([N+](=O)[O-])c1 (centres unmarked) [CBK263801] | 103%
31 | O=C(COc1ccc([N+](=O)[O-])cc1)Nc1cccc2nsnc12 [CBK263808] | 94.8%
32 | COc1ccc(C2=C(Nc3ccc(C(=O)NCc4cccnc4)cc3)c3ccccc3C2=O)cc1 [CBK263809] | 89.1%
33 | COc1cccc(NC(=O)CSc2ccc(Cl)cc2)c1 [CBK263811] | 85.6%
34 | COc1cc(/C=N/n2cnnc2)ccc1OS(=O)(=O)c1ccccc1[N+](=O)[O-] [CBK263814] | 89.3%
35 | Cc1cc(/C=N/NC(=O)C(=O)NCc2ccccn2)c(C)n1-c1cccc(Br)c1 [CBK263815] | 93.2%
36 | CC(NS(=O)(=O)N(C)C)c1ccccc1 (centres unmarked) [CBK263819] | 96.6%
37 | O=C(CCN1CCOCC1)Nc1ccc(Cl)cc1 [CBK263820] | 98.8%
38 | CCN(CC)Cc1c(O)ccc2cc(-c3nc4ccccc4[nH]3)c(=O)oc12 [CBK263824] | 102%
39 | Cc1cccn2c(=O)c(/C=C3\SC(=S)N(CC4CCCO4)C3=O)c(NCCCn3ccnc3)nc12 (centres unmarked) [CBK263825] | 119%
40 | CCOC(=O)c1c(-c2ccccc2)oc2ccc(OCC(=O)NN)cc12 [CBK263826] | 91.8%
41 | CC(=O)Oc1ccc(-c2cccc(C(=O)NCC(=O)O)c2)cc1 [CBK263828] | 86.9%
